According to patent US4520022A, “Substituted vinyl cephalosporins” (priority 1983, dated 1985):
Values after ≈ are worked out from the molar mass of the structure shown. Values joined by “and” are separate entries in the source; they are usually repeats but may differ in a detail not shown here. Equal values may be shown once. Read-outs that look alike come from different tables or passages of the source.

Key:
S. aureus Smith = test: Protective dose, mice infected with lethal inoculum, oral treatment, S. aureus Smith; type: in vivo; details: for ED50: Staphylococcus aureus, po, 120 h
E. coli Juhl = test: Protective dose, mice infected with lethal inoculum, oral treatment, E. coli Juhl; type: in vivo; details: for ED50: Escherichia coli, po, 120 h
S. aureus BX-1633 = test: Protective dose PD50, mice infected with lethal inoculum, oral treatment, S. aureus BX-1633; type: in vivo; details: Staphylococcus aureus, BX1633, 120 h
S. pyogenes A20201 = test: Protective dose PD50, mice infected with lethal inoculum, oral treatment, S. pyogenes A20201; type: in vivo; details: Streptococcus pyogenes, 120 h
H. influenza A9729 = test: Protective dose PD50, mice infected with lethal inoculum, oral treatment, H. influenza A9729; type: in vivo; details: Mus musculus, 120 h
Source text: The structure activity correlations drawn from the foregoing in vitro studies are born out by the results of in vivo studies in mice. Table 4 is a tabulation of the protective doses for mice infected with a lethal inoculum of a bacteria. Two different bacteria were employed in the studies, one a Gram+ organism and the other a Gram- organism. The protective dose (PD50) is that dose which when administered to a group of infected mice results in 50% survival after five days. Normally untreated infected mice die within three days following injection of the lethal inoculum.
Protective Dose PD50 for Mice Infected with Lethal Inoculum

P. mirabilis A9554 = test: Protective dose PD50, mice infected with lethal inoculum, oral treatment, P. mirabilis A9554; type: in vivo
S. pyogenes = test: In vitro activity against Streptococci (MIC), S. pyogenes; type: cell-based
S. pneumoniae = test: In vitro activity against Streptococci (MIC), S. pneumoniae; type: cell-based; details: Streptococcus pneumoniae
H. influenzae = test: In vitro activity against Haemophilis (MIC), H. influenzae; type: cell-based; details: Haemophilus influenzae, Compound 9 lot 2, read-out: MIC
B. fragilis = test: In vitro activity against anaerobes (MIC), B. fragilis; type: cell-based; details: Bacteroides fragilis
C. difficile A21675 = test: In vitro activity against anaerobes (MIC), C. difficile; type: cell-based; details: Clostridioides difficile; Gp rods; C. difficile A21675; clindamycin resistant; read-out: MIC
C. perfringens A9645 = test: microbe, parasite or virus in culture; type: cell-based; details: Clostridium perfringens
Gp, rods; Gp, cocci = test: microbe, parasite or virus in culture; type: cell-based, C. difficile; C. perfringens; P. acnes; P. anaerobius; details: read-out: MIC, Geometric Mean
[1] = tested on: Gp Ib: S. aureus 193, BX-1633-2 A9606, A15092, Russell, A9602; details: Staphylococcus aureus
[2] = tested on: Gp Ia: S. aureus Smith A9537, A9497, Terajima, A9534, A9601; details: Staphylococcus aureus
[3] = Metabolism in the rat (urine after oral administration); type: in vivo, Wister rats; details: oral 100 mg/kg; urine 24 hours
Experimental: Refer to Procedure 43. Compound No. 37 is the 3,4-dihydroxyphenyl compound and Compound No. 42 is the 3-methoxy-4-hydroxyphenyl compound.
Six male Wister rats (400-600 g) were placed in steel metabolic cages after the oral administration of Compound 37 at the dose of 100 mg/kg and urine was collected over a period of 24 hours. The rats were fed their regular diet and given water during the experiment.
The urine (ca. 90 ml) was adjusted to pH 3 with N hydrochloric acid and filtered to remove a precipitate. The filtrate was chromatographed on a column packed with 300 ml of HP-20 by eluting with 2 L of water and 2 L of 30% methanol under monitoring the HPLC. The fractions containing the bioactive components of the 30% methanol eluate were collected, concentrated to 10 ml and lyophilized to give 390 mg of brown solid. A solution of the solid in 20 ml of water was chromatographed on a column packed with 200 ml of the packing of a prepPAK-C18 cartridge (Waters) by eluting with water, 5% methanol, and 10% methanol, successively. The first half of the 5% methanol eluate was concentrated to 5 ml and lyophilized to give 44 mg of Compound 37 (70% pure) containing impurities derived from urine. The second half of the 5% methanol eluate was concentrated to 5 ml and lyophilized to give 36 mg of product, which was a mixture of Compound 37, Compound 42, and impurities derived from urine. […]

bacteria = test: Antibacterial activity, general statements; details: in words
[4] = mouse, in vivo, po
in vivo = details: mouse; for half-life: T1/2
[5] = oral, value in parentheses: cephalexin in the same run as the compound of that line, 7200 min
[6] = read-out: Minimum Inhibitory Concentration Gp Ib, Mueller-Hinton agar, run 2, average of five organisms
[7] = read-out: Minimum Inhibitory Concentration Gp Ia, Mueller-Hinton agar, run 2, average of five organisms

CC1=C(C(=O)O)N2C(=O)[C@@H](NC(=O)[C@H](N)c3ccccc3)[C@H]2SC1 [Cephalexin]
ED50 (S. aureus Smith; read-out: Protective dose (PD50) of cephalexin in the same run, S. aureus Smith, oral, value in parentheses: cephalexin in the same run as the compound of that line): 0.31 mg/kg | Protective dose (PD50) of cephalexin in the same run, S. aureus Smith (S. aureus Smith; [5]): 0.27 mg/kg and 0.22 mg/kg | ED50 (E. coli Juhl; read-out: Protective dose (PD50) of cephalexin in the same run, E. coli Juhl, oral, value in parentheses: cephalexin in the same run as the compound of that line): 8.4 mg/kg | Protective dose (PD50) of cephalexin in the same run, E. coli Juhl (E. coli Juhl; [5]): 8.2 mg/kg | ED50 (S. aureus BX-1633): 17 mg/kg | ED50 (S. pyogenes A20201): 0.74 mg/kg | ED50 (H. influenza A9729): 18 mg/kg | Protective Dose PD50 (P. mirabilis A9554): 12.5 | MIC (S. pyogenes; S. pyogenes A9604, Compound 9 lot 2): 0.8 µg/mL (≈ 2.3 µM) | MIC (S. pyogenes; S. pyogenes A15040, Compound 9 lot 2): 0.8 µg/mL (≈ 2.3 µM) | MIC (S. pyogenes; S. pyogenes A20065, Compound 9 lot 2): 0.8 µg/mL (≈ 2.3 µM) | MIC (S. pyogenes; S. pyogenes A20201, Compound 9 lot 2): 0.8 µg/mL (≈ 2.3 µM) | MIC (S. pyogenes; S. pyogenes Dick, Compound 9 lot 2): 0.8 µg/mL (≈ 2.3 µM) | MIC (S. pyogenes; Streptococcus pyogenes): 0.8 µg/mL (≈ 2.3 µM) | MIC (S. pyogenes; Streptococcus pyogenes, read-out: MIC, Geometric Mean): 0.8 µg/mL (≈ 2.3 µM) | MIC (S. pneumoniae): 3.1 µg/mL (≈ 8.92 µM) | MIC (S. pneumoniae; S. pneumoniae A9585, Compound 9 lot 2): 3.1 µg/mL (≈ 8.92 µM) | MIC (S. pneumoniae; S. pneumoniae A15069, Compound 9 lot 2): 3.1 µg/mL (≈ 8.92 µM) | MIC (S. pneumoniae; S. pneumoniae A20759, Compound 9 lot 2): 3.1 µg/mL (≈ 8.92 µM) | MIC (S. pneumoniae; S. pneumoniae Type I, Compound 9 lot 2): 3.1 µg/mL (≈ 8.92 µM) | MIC (S. pneumoniae; S. pneumoniae Type III, Compound 9 lot 2): 3.1 µg/mL (≈ 8.92 µM) | MIC (S. pneumoniae; read-out: MIC, Geometric Mean): 3.1 µg/mL (≈ 8.92 µM) | MIC (H. influenzae; H. influenzae A22157): 3.1 µg/mL (≈ 8.92 µM) | MIC (H. influenzae; H. influenzae A22481): 3.1 µg/mL (≈ 8.92 µM) | MIC (H. influenzae; H. influenzae A22491): 3.1 µg/mL (≈ 8.92 µM) | MIC (B. fragilis; B. fragilis A20928-1, A21900, A20935, β-lactamase (-), read-out: MIC, Geometric Mean): 9.9 µg/mL (≈ 28.5 µM) | MIC (B. fragilis; B. fragilis A20928-1, β-lactamase (-)): 12.5 µg/mL (≈ 36 µM) | MIC (B. fragilis; B. fragilis A22021, β-lactamase (+), read-out: MIC): 100 µg/mL (≈ 288 µM) | MIC (B. fragilis; B. fragilis A22053, A22021, A22693, β-lactamase (+), read-out: MIC, Geometric Mean): > 75 µg/mL | MIC (B. fragilis; B. fragilis A22053, β-lactamase (+), read-out: MIC): 25 µg/mL (≈ 72 µM) | MIC (B. fragilis; B. fragilis A22533, β-lactamase (+), read-out: MIC): > 100 µg/mL | MIC (B. fragilis; B. fragilis A22693, β-lactamase (+), read-out: MIC): > 100 µg/mL | MIC (B. fragilis; B. fragilis A22695, A22533, β-lactamase (+), read-out: MIC, Geometric Mean): > 100 µg/mL | MIC (B. fragilis; B. fragilis A22695, β-lactamase (+), read-out: MIC): 100 µg/mL (≈ 288 µM) | MIC (C. difficile A21675): 100 µg/mL (≈ 288 µM) | MIC (C. perfringens A9645): 12.5 µg/mL (≈ 36 µM) | MIC (Gp, rods; Gp, cocci): 11 µg/mL (≈ 31.7 µM) | MIC ([1]; read-out: Minimum Inhibitory Concentration Gp Ib, Mueller-Hinton agar, run 1, average of five organisms): 4.1 µg/mL (≈ 11.8 µM) | MIC [1, 6]: 3.6 µg/mL (≈ 10.4 µM) | MIC ([2]; read-out: Minimum Inhibitory Concentration Gp Ia, Mueller-Hinton agar, run 1, average of five organisms): 1.2 µg/mL (≈ 3.45 µM) | MIC [2, 7]: 0.7 µg/mL (≈ 2.01 µM)

C/C=C\C1=C(C(=O)O)N2C(=O)[C@@H](NC(=O)[C@H](N)c3ccc(O)c(O)c3)[C@H]2SC1 [Compound 37, 7β-[D(-)-2-Amino-2-(3,4-dihydroxyphenyl)acetamido]-3-[(Z)-1-propen-1-yl]-3-cephem-4-carboxylic Acid]
ED50 (S. aureus Smith; oral, 50% survival for 5 days, groups of 5 mice, read-out: Protective dose (PD50), S. aureus Smith): 0.13 mg/kg | ED50 (E. coli Juhl; oral, 50% survival for 5 days, groups of 5 mice, read-out: Protective dose (PD50), E. coli Juhl): 0.44 mg/kg | activity against the Gram- infection (E. coli Juhl; in words): more active against the Gram- infection | metabolism in the rat [3]: metabolized in the rat to Compound No. 42 | antibacterial activity (bacteria): highly active substance against both the Gram+ and Gram- bacteria | blood levels following oral administration [4]: exceptionally high blood levels | AUC (in vivo; im, 20 mg/kg, AUC*): 233 µg·h/mL | Cmax (in vivo; im, 20 mg/kg): 86 µg/mL | half-life (in vivo; im, 20 mg/kg): 1.2 h | AUC (in vivo; po, 20 mg/kg, AUC*): 270 µg·h/mL | Cmax (in vivo; po, 20 mg/kg): 58 µg/mL | half-life (in vivo; po, 20 mg/kg): 5.1 h | AUC (in vivo; po, 100 mg/kg, AUC): 666 µg·h/mL | Cmax (in vivo; po, 100 mg/kg): 180 µg/mL | half-life (in vivo; po, 100 mg/kg): 2.5 h | MIC [1, 6]: 7.2 µg/mL (≈ 17.8 µM) | MIC ([1]; read-out: Minimum inhibitory Concentration Gp Ib, Test Medium Comparison, A: Mueller-Hinton agar, average values): 6.3 µg/mL (≈ 15.5 µM) | MIC ([1]; read-out: Minimum inhibitory Concentration Gp Ib, Test Medium Comparison, B: Nutrient agar, average values): 0.61 µg/mL (≈ 1.5 µM) | MIC [2, 7]: 6.3 µg/mL (≈ 15.5 µM) | MIC ([2]; read-out: Minimum inhibitory Concentration Gp Ia, Test Medium Comparison, A: Mueller-Hinton agar, average values): 4.8 µg/mL (≈ 11.8 µM) | MIC ([2]; read-out: Minimum inhibitory Concentration Gp Ia, Test Medium Comparison, B: Nutrient agar, average values): 0.4 µg/mL (≈ 0.987 µM)
